Test results published in patent US5461059A, “Derivatives of terbutylphenyl-1-amino-4-hydroxybutane their preparation processes and the pharmaceutical compositions containing them” (priority 1990, dated 1995).
Read-outs that look alike come from different tables or passages of the source.

How the values were obtained:
[1] = assay type: in vivo, mice
From the text: The principle of this test consists in chronometering the duration for which mice maintain itself on a rod rotating at a constant speed. Compounds which are endowed with sedative or myorelaxing or inhibitory of the motor coordination, will induce a precocious fall, before 120 seconds which are the maximals period of study. […] This test takes place 30 mn and 60 mn after administration. […] Chlorpromazine, major neuroleptic used as positive standard in the Rota-rod Test, caused the fall before the time granted, of 90% of the mice from the dosage of 4 mg/kg by intraperitoneal way.

[2] = Irwin's test (modified, Morpurgo), behaviour in mice; assay type: in vivo; settings: oral
Experimental: The Irwin's test, modified according to Morpurgo's Technique (1971) has been carried out to search optional alterations of the spontaneous behaviour under the action of the compound of example III or of a H1-antihistaminic of the first generation Dexchloropheniramine, known to induce some effects of drowsiness in the person. After administration by oral way, the mice have been kept under observation for 30 mn then have submitted to a seri. of simple test of behavioural screening after 30 mn, 3 hours and 24 hours.

[3] = tested on: GABAA; test: Affinity for GABAA ([3H]Muscimol); assay type: binding; settings: rat whole brain; 5 nM [3H]Muscimol, pH 7.2; read-out: CI50 (the source's name)
Experimental: GABAA : whole brain 20 mn at 4° C., in 50 nM TRIS-ClH buffer (pH 7.2) added to 0.5%. TRITON X-100, against 5 nM [^3 H] Muscimol.

[4] = target: T1, Peripheral sites to the benzodiazepines (Rattus norvegicus, UniProt P16257); test: Affinity for peripheral sites to benzodiazepines ([3H]PK 11195); assay type: binding
T1 construct: membranar receptors of various rats organs; from tissue; host or cells: rat cortex
Experimental: (§1) A broad range of membranar receptors of various rats organs has been tested according to the same principle than the H1 receptor under the following conditions which are summarized:
Peripheral sites to the benzodiazepines: Cortex 90 mn at 25° C. in 90 mM PO4 HNa2 /PO4 H2 K buffer, 81 mM ClNa and […] (pH 7.4) against 1 nM [^3 H]PK 11195.
(§2) The more weak is the CI50, the more high is the affinity.

[5] = target: T2, Adenosine A2 (Rattus norvegicus, UniProt P30543); test: Affinity for adenosine A2 ([3H]NECA); assay type: binding
T2 construct: membranar receptors of various rats organs; from tissue; host or cells: rat striatum
Experimental: as §1
Adenosine A2: striatum 60 mn at 25° in 50 mM TRIS-ClH buffer (pH 7.7) added with 50 nM cyclopentyladenosine, 10 mM Cl2 Mg and 0.1 Unit/ml […] against 4 nM of [^3 H] NECA (5'-N-ethylcarboxamido adenosine).
as §2

[6] = tested on: Central sites to benzodiazepines; test: Affinity for central sites to benzodiazepines ([3H]-Flunitrazepam); assay type: binding; settings: rat whole brain; 0.3 nM [3H]-Flunitrazepam, pH 7.1; read-out: CI50 (the source's name)
Experimental: Central sites to benzodiazepines: whole brain, 90 mn at 0° C. in 50 mM TRIS-ClH buffer (pH 7.1) against 0.3 nM [^3 H]-Flunitrazepam.

[7] = target: T3, Adenosine A1 (Rattus norvegicus, UniProt P25099); test: Affinity for adenosine A1 ([3H]cyclohexyladenosine); assay type: binding
T3 construct: membranar receptors of various rats organs; from tissue; host or cells: rat cortex
T3 sequence (P25099 1-326): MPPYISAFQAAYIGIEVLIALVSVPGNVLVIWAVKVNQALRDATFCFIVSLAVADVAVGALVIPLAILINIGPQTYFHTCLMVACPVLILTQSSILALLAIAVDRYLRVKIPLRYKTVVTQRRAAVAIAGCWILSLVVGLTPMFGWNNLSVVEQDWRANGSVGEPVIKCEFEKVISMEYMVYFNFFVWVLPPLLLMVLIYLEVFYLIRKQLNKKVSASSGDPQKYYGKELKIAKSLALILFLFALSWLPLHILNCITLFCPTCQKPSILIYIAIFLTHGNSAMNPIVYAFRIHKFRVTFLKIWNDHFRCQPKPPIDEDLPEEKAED
Experimental: as §1
Adenosine A1: cortex, 90 mn at 25° C. in 50 mM TRIS-ClH buffer (pH 7.7) against 1 nMol of [^3 H] cyclohexyladenosine
as §2

[8] = target: T4, GABAB (Rattus norvegicus, UniProt Q9Z0U4); test: Affinity for GABAB ([3H]Baclofen); assay type: binding
T4 construct: membranar receptors of various rats organs; from tissue; host or cells: rat cerebellum
Experimental: as §1
GABAB : Cerebellum, 10 mn at 22° C. in 50 mM TRIS-ClH buffer (pH 7.4) added to 1.2 mM SO^4 Mg and 2.5 mM Cl2 Ca, against 20 nM of [^3 H] Baclofen.
as §2

[9] = target: T5, Muscarinic M2 (Rattus norvegicus, UniProt P10980); test: biochemical; assay type: binding
T5 sequence (P10980 1-466): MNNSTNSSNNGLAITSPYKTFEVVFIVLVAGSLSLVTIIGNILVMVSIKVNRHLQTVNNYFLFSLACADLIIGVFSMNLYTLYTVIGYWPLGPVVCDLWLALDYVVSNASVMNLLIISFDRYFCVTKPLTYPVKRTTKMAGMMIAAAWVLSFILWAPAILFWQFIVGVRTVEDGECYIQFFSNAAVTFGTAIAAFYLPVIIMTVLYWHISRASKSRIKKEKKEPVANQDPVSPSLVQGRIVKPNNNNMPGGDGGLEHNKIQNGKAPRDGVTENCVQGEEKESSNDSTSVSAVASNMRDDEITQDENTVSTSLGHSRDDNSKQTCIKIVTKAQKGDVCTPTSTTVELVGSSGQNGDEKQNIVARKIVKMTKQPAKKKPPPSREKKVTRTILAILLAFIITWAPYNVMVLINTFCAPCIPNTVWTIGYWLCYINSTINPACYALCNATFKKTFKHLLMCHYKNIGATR

[10] = target: T6, Sigma receptor (Rattus norvegicus, UniProt Q9R0C9); test: Affinity for Sigma receptors ([3H](+)3-PPP); assay type: binding
T6 construct: membranar receptors of various rats organs; from tissue; host or cells: rat whole brain
Experimental: as §1
Sigma receptors: whole brain, 2 hours at 22° C. in 50 mM TRIS-ClH buffer (pH 8) against 2 nM of [^3 H] (+)3-PPP (3-(3-hydroxyphenyl)N-(1-propyl) piperidine).
as §2

[11] = tested on: bronchospasm due to histamine; test: Bronchospasm to histamine aerosol in guinea pigs, intraperitoneal; assay type: in vivo, guinea pig; settings: for ED50: Cavia porcellus, ip, 0.5 h, read-out: ED50 (efficient dosage at 50%) against histamine bronchospasm
Experimental: Inhalating an aerosol at 1%, of histamine (aqeuous solution in distilled water, nebulization with a apparatus HOSPITAK) causes in the guinea pigs, a bronchospasm which leads with immobilization of the animals on their own side. The time needed for the animals to lie down is measured for 5 minutes maximum.

[12] = tested on: bronchospasm due to histamine; test: Bronchospasm to histamine aerosol in guinea pigs, oral; assay type: in vivo, guinea pig; settings: single dosage 10 mg/kg
Experimental: By oral way the single dosage of 10 mg/kg has been studied as a function of time.

[13] = target: receptors of H1-type (Cavia porcellus, UniProt P31389); test: Histamine contraction of isolated ileon of guinea pig; settings: for activity compared with Terfenadine on isolated ileon: difference not significant
From the text: The shift of the relationship between contracturing effect and concentration of histamine by the compound to be studied, stamps an anti-H1 activity.

[14] = target: T7, H1-receptors of guinea pigs lungs (Cavia porcellus, UniProt P31389); test: Affinity for H1 receptors, guinea pig lung membranes ([3H]Mepyramine); assay type: binding; settings: read-out: CI50 (50% inhibitory concentration) on H1 receptors, 2 nM tritiated Mepyramine, 30 mn, 25° C., pH 7.4
T7 construct: membranar preparations of homogenates of rat cortexes or guinea pig lungs; from tissue; host or cells: guinea pig lung membranes
Experimental: (§3) After 30 mn at 25° C. and at pH 7.4, in a 50 mM TRIS-ClH buffer for the membrans of the cortex or a 0.5 M PO4 HNa2 /PO4 H2 K buffer for the lungs membrans, the residual bound fraction of tritiated ligand is counted by scintillation in a liquid medium after filtration on an apparatur of the Brandel's type and several washings.

[15] = target: T8, H1 receptors of rat cortexes (Rattus norvegicus, UniProt P31390); test: Affinity for H1 receptors, rat cortex membranes ([3H]Mepyramine); assay type: binding; settings: read-out: CI50 (50% inhibitory concentration) on H1 receptors, 2 nM tritiated Mepyramine, 30 mn, 25° C., pH 7.4
T8 construct: membranar preparations of homogenates of rat cortexes or guinea pig lungs; from tissue; host or cells: rat cortex membranes
Experimental: as §3

[16] = Single maximal non-toxic dosage by oral way in mice; assay type: in vivo; settings: single oral dosage until 1000 mg/kg
Experimental: On the other side a mydriasis has been noticed after 3 hours. […] This is less fine than the Irvin's Test during which the animals are handled and interact with the experimenter.

[17] = target: T9, Muscarinic M1 (Rattus norvegicus, UniProt P08482); test: Affinity for muscarinic M1 ([3H]-pirenzepine); assay type: binding; settings: rat cortex, striatum and hypocampus; 2 nM [3H]-pirenzepine, pH 7.4; read-out: CI50 (the source's name)
T9 construct: membranar receptors of various rats organs; from tissue; host or cells: rat cortex, striatum and hippocampus (pool)
T9 sequence (P08482 1-460): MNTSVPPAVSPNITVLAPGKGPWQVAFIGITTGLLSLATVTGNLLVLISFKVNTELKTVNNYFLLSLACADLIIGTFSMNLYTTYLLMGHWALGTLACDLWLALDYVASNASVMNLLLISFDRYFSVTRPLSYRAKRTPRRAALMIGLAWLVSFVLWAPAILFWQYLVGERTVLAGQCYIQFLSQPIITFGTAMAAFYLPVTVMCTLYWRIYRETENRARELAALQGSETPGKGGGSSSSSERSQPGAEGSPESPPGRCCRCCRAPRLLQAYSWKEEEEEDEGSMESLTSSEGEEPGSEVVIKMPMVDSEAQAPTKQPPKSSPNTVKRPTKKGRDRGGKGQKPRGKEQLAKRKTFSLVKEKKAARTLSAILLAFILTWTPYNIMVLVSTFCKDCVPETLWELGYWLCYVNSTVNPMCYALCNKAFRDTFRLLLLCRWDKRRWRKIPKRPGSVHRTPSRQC
Experimental: Muscarinic M1: pool of cortex, striatum and hypocampus, 60 mn at 25° C. in 10 mM PO4 HNa2 /PO4 H2 K buffer (pH 7.4) against 2 nM [^3 H]-pirenzepinc.

[18] = rat cortex, 1 nM [3H]PK 11195, pH 7.4, read-out: CI50 (the source's name)
[19] = rat striatum, 4 nM [3H]NECA, pH 7.7, read-out: CI50 (the source's name)
[20] = rat cortex, 1 nMol [3H]cyclohexyladenosine, pH 7.7, read-out: CI50 (the source's name)
[21] = rat cerebellum, 20 nM [3H]Baclofen, pH 7.4, read-out: CI50 (the source's name)
[22] = intraperitoneal, 10 mg/kg, 30 minutes after administration

receptors of H1-type, sequence (P31389 whole entry): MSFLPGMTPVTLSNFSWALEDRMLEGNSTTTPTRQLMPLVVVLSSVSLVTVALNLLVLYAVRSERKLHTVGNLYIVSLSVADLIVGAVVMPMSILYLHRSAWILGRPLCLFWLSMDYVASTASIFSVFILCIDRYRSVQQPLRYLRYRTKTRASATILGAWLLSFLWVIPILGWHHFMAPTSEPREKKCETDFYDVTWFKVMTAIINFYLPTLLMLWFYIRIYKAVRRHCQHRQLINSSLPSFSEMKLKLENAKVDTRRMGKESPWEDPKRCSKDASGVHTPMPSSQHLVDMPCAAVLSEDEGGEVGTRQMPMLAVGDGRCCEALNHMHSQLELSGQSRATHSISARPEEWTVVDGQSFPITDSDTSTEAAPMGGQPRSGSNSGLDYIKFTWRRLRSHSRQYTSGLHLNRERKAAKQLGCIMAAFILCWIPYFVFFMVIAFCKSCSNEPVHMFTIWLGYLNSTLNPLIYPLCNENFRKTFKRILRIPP
T4 sequence (Q9Z0U4 17-960 limits assumed): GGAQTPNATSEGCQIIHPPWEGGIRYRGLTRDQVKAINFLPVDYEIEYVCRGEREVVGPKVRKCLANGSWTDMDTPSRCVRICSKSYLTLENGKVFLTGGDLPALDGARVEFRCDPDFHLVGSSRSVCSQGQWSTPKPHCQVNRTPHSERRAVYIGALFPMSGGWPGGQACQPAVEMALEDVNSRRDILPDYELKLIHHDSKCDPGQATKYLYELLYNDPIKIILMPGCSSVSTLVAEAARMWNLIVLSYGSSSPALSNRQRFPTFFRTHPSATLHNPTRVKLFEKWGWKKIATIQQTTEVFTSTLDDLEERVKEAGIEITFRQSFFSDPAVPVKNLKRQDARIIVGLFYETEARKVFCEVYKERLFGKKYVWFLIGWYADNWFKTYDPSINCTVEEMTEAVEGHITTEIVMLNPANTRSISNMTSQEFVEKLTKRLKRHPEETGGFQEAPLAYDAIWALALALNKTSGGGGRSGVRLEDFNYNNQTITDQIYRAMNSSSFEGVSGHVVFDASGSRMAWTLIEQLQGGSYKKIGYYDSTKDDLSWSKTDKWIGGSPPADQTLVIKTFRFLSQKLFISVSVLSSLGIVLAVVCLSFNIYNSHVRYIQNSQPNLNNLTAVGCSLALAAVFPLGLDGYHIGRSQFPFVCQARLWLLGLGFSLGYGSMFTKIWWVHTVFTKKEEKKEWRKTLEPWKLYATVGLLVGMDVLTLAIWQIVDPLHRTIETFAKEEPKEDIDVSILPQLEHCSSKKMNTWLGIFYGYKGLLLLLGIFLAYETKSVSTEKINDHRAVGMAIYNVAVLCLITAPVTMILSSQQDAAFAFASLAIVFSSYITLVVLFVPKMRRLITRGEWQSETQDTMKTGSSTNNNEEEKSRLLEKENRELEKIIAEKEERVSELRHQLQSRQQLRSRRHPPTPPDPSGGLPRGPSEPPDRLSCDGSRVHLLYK
T4 sequence (O88871 41-940 partner): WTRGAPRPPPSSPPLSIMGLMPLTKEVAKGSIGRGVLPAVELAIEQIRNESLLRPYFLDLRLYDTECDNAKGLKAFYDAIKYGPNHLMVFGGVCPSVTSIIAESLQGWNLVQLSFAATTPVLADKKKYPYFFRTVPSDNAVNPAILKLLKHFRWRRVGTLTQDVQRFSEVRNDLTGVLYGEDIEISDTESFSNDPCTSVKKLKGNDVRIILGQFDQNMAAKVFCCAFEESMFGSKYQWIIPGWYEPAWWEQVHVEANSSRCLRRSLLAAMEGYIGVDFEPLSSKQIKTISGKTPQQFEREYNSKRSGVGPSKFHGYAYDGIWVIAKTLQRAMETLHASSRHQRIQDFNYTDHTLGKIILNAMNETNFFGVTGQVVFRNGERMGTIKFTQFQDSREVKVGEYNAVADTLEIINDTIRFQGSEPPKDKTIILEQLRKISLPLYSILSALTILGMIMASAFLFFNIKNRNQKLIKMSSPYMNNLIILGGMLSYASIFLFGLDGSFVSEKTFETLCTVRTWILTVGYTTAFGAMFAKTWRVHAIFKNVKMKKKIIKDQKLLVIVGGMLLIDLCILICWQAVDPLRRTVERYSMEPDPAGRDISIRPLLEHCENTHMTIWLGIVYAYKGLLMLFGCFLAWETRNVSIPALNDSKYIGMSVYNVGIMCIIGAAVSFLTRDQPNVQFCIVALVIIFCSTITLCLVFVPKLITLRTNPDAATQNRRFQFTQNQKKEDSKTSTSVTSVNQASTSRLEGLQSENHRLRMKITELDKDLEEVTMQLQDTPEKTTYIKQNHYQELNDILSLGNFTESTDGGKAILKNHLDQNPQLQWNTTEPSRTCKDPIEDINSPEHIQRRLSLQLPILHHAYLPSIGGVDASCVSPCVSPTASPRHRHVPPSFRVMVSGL
T6 sequence (Q9R0C9 whole entry): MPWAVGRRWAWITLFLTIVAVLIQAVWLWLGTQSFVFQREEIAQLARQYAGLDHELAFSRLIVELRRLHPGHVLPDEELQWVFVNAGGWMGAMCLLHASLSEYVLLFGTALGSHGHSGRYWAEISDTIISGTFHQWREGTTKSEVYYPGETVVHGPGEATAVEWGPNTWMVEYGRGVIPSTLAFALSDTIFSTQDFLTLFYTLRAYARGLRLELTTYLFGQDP
T2 sequence (P30543 whole entry): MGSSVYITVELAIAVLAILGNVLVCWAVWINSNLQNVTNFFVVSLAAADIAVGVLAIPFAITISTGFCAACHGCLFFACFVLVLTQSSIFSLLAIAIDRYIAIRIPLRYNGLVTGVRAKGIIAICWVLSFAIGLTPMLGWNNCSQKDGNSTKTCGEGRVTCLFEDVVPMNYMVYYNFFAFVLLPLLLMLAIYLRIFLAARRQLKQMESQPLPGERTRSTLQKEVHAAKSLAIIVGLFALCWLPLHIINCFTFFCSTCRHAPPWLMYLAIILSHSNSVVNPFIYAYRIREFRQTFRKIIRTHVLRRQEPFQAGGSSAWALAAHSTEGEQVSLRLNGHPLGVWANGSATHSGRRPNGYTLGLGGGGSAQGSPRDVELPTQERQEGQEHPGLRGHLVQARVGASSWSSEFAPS
T7 sequence (P31389 whole entry): as the sequence (P31389 whole entry) above
T8 sequence (P31390 whole entry): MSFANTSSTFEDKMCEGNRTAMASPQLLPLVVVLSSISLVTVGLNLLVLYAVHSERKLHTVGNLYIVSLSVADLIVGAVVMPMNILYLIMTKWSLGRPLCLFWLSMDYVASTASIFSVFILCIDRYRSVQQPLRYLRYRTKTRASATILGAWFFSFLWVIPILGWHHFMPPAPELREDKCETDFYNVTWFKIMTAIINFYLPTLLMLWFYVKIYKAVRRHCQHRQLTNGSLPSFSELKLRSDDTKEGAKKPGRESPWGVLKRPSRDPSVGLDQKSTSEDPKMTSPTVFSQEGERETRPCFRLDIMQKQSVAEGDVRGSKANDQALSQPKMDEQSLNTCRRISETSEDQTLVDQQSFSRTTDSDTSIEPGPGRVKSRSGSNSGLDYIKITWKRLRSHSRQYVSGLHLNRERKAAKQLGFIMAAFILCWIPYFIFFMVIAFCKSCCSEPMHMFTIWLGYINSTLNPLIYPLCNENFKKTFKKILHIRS

## CN(C)CCCN1c2ccccc2Sc2ccc(Cl)cc21 [Chlorpromazine]
[1]; intraperitoneal, from 4 mg/kg
  mice falling before the time granted (120 seconds): 90%

## CN(C)CC[C@@H](c1ccc(Cl)cc1)c1ccccn1 [Dexchlorpheniramine]
[2]; 100 mg/kg, 30 mn
  behavioural alteration (Irwin's test): a hyperactivity and a slight irritability
[2]; 100 mg/kg, 3 hours
  behavioural alteration (hyperactivity and slight irritability): persisting
[2]; 100 mg/kg, 24 hours
  behavioural alteration (hyperactivity and slight irritability): disappearing
[2]; 100 mg/kg, after 3 hours
  ocular effect (Irwin's test): mydriasis

## COc1ccc(CN(CCN(C)C)c2ccccn2)cc1 [Mepyramine]
[3]
  IC50: > 10 µM
[4]; [18]
  IC50: > 10 µM
[5]; [19]
  IC50: > 10 µM
[6]
  IC50: > 10 µM
[7]; [20]
  IC50: > 10 µM
[8]; [21]
  IC50: > 10 µM
[9]
  IC50: 3.5 µM
[10]
  IC50: 0.59 µM
[10]; versus pentazocine
  affinity for Sigma-receptor, times weaker than pentazocine: ~20 times weaker

## CC(C)(C)c1ccc(C(O)CCCN2CCC(C(O)(c3ccccc3)c3ccccc3)CC2)cc1 (centres unmarked) [Terfenadine]
[3]
  IC50: > 10 µM
[4]
  IC50: > 10 µM
[5]
  IC50: > 10 µM
[6]
  IC50: > 10 µM
[11]
  ED50: ~7 mg/kg
[11]; intraperitoneal
  protection against histamine bronchospasm: poorly efficient
[11]; [22]
  protection against histamine bronchospasm: total protection of all the animals
[12]
  duration of protection against histamine bronchospasm: 4 h
[7]
  IC50: > 10 µM
[8]
  IC50: > 10 µM
[9]
  IC50: > 10 µM
[10]
  IC50: > 10 µM

## CC(C)(C)c1ccc(C(O)CCCN2CCN(c3nc4ccccc4n3Cc3ccc(F)cc3)CC2)cc1 (centres unmarked) [example III]
[3]
  IC50: > 10 µM
[13]; 10^-5 M
  effect on histamine contraction of isolated ileon: partially irreversible inhibition
  activity compared with Terfenadine on isolated ileon: the opposite seems to be produced
[13]; 10^-6 M
  effect on histamine contraction of isolated ileon: inhibition of the competitive type
  activity compared with Terfenadine on isolated ileon: slightly more active than Terfenadine
[13]; 10^-7 M
  effect on histamine contraction of isolated ileon: no effect
[4]; [18]
  IC50: > 10 µM
[14]
  IC50: 2.7 µM
[5]; [19]
  IC50: > 10 µM
[6]
  IC50: > 10 µM
[11]; intraperitoneal, from regression curve
  ED50: ~6.7 mg/kg
[11]; intraperitoneal
  protection against histamine bronchospasm: poorly efficient
[11]; [22]
  protection against histamine bronchospasm: total protection of all the animals
[15]
  IC50: 1.1 µM
[1]; oral, until highest tested dosage 100 mg/kg, 30 and 60 mn, versus vehicle
  alteration of rota-rod performance: did not alter the performances
[12]
  duration of protection against histamine bronchospasm: 12 h
[12]; 24 hours
  animals with total protection (more than 5 minutes) at 24 hours: 50%
[7]; [20]
  IC50: > 10 µM
[2]; maximal tested dosage 400 mg/kg, at 3 hours only
  behavioural alteration (Irwin's test): a very weak passivity in half of the animals
[8]; [21]
  IC50: > 10 µM
[9]; pH 7.5, read-out: CI50 (the source's name)
  IC50: > 10 µM
[16]
  clinical symptoms, search for maximal non-toxic dosage: do not display any clinical symptom
[10]; rat whole brain, 2 nM [3H](+)3-PPP, pH 8, read-out: CI50 (the source's name)
  IC50: > 10 µM
[17]
  IC50: > 10 µM
